What all share (format): functional
The subject of assay [1] is Mycobacterium tuberculosis. The experiment in a line: AntiMycobacterium tuberculosis activity Non-Replicating form: Average MIC90 (uM).
The subject of assay [2] is Mycobacterium tuberculosis. The experiment in a line: AntiMycobacterium tuberculosis activity 1-week GAST/Fe MIC (uM). As to conditions: 168 h.
Assay [3] deals with Mycobacterium tuberculosis. The experiment in a line: AntiMycobacterium tuberculosis activity 2-week GAST/Fe MIC (uM). The following applies: 336 h.
Assay [4] has as its system Mycobacterium tuberculosis. Put plainly: AntiMycobacterium tuberculosis activity 1-week 7H9/ADC/Tw MIC (uM). The following applies: 168 h.
Assay [5] has as its system Mycobacterium tuberculosis. Put plainly: AntiMycobacterium tuberculosis activity 2-week 7H9/ADC/Tw MIC (uM). The following applies: 336 h.
For assay [6], the system named is Mycobacterium tuberculosis. Put plainly: AntiMycobacterium tuberculosis activity 2-week Alamar Blue 7H9/ADC/Tw MIC (uM). As to conditions: 336 h. For orientation: Resazurin is reduced to fluorescent resorufin, in cell work by metabolically active cells.
Assay [7] has as its system Mycobacterium tuberculosis. The experiment in a line: AntiMycobacterium tuberculosis activity 1-week 7H9/glucose/BSA/Tx MIC (uM). As to conditions: 168 h.
The test system of assay [8] is Mycobacterium tuberculosis. Put plainly: AntiMycobacterium tuberculosis activity 2-week 7H9/glucose/BSA/Tx MIC (uM). As to conditions: 336 h.
Assay [9] deals with Mycobacterium tuberculosis. Put plainly: AntiMycobacterium tuberculosis activity 1-week 7H9/DPPC/cholesterol/BSA/Tx MIC (uM). The following applies: 168 h.
Assay [10] concerns Mycobacterium tuberculosis. The experiment in a line: AntiMycobacterium tuberculosis activity 2-week 7H9/DPPC/cholesterol/BSA/Tx MIC (uM). The following applies: 336 h.
Assay [11] deals with Mycobacterium tuberculosis. Put plainly: AntiMycobacterium tuberculosis activity 1-week 7H9/cholesterol/BSA/Tx MIC (uM). The following applies: 168 h.
Assay [12] relates to Mycobacterium tuberculosis. The experiment in a line: AntiMycobacterium tuberculosis activity 2-week Alamar Blue 7H9/cholesterol/BSA/Tx MIC (uM). The following applies: 336 h.
The subject of assay [13] is Mycobacterium tuberculosis. The experiment in a line: (§1) AntiMycobacterium tuberculosis activity day 10 in 7H9/2.5mM butyrate/pH6/0.1mM nitrite MIC90 (uM). As to conditions: 240 h.
Assay [14] relates to Mycobacterium tuberculosis. The experiment in a line: AntiMycobacterium tuberculosis activity day 21 in 7H9/2.5mM butyrate/pH6/0.1mM nitrite MIC90 (uM). The following applies: 504 h.
Assay [15] relates to Mycobacterium tuberculosis. The description is as §1. The following applies: 240 h. The source holds these as a separate data set.
For assay [16], the system named is Mycobacterium tuberculosis. Put plainly: AntiMycobacterium tuberculosis activity day 21 MIC99 in 7H9/2.5mM butyrate/pH6/0.1mM nitrite MIC99 (uM). The following applies: 504 h.
The subject of assay [17] is Mycobacterium tuberculosis. The experiment in a line: AntiMycobacterium tuberculosis activity Replicating form: Average MIC90 (uM).
For a further assay, the system named is HepG2. The experiment in a line: HepG2 CC50 (uM) Cytotoxicity. The following applies: Homo sapiens.

Values after ≈ are worked out from the molar mass of the structure shown.

The MIC90 is the lowest concentration that inhibits either 90% of growth or 90% of the strains tested, depending on the study. Read a high MIC90 as lower susceptibility. What is called MIC is the lowest concentration that inhibits growth of the organism. Read a high MIC as a less susceptible organism. The CC50 is the concentration that lowers cell viability or growth by half. With `Cc1cc(C)c2cc(C(=O)NC3CCCCCCC3)[nH]c2c1`, the MIC90 in [1] was 0.01 µM (≈ 0.00298 µg/mL); in [13], not above 0.04 µM; in assay [14] it was not above 0.04 µM; in [15] it was more than 50 µM; in assay [17] it was 0.01 µM (≈ 0.00298 µg/mL). For the same compound, the minimum inhibitory concentration (MIC) in [2] was less than 0.02 µM; in assay [3], less than 0.02 µM; in assay [4], less than 0.02 µM; in [5], 0.02 µM (≈ 0.00597 µg/mL); in assay [6], 0.02 µM (≈ 0.00597 µg/mL); in [7], less than 0.02 µM. Moreover, the MIC is less than 0.02 µM in [8]; less than 0.02 µM in assay [9]; less than 0.02 µM in [10]; less than 0.02 µM in [11]; less than 0.02 µM in assay [12]; more than 50 µM in [16]. This compound also came in with a cytotoxic concentration (CC50) in the assay with HepG2 of more than 100 µM.
For the compound `O=C(c1[nH]nc2c1CCCC2)N1CCN(Cc2ccc3c(c2)OCO3)CC1`, the MIC90 is more than 15.5 µM in assay [1]; 1.5 µM (≈ 0.553 µg/mL) in assay [13]; 6.25 µM (≈ 2.3 µg/mL) in [14]; more than 50 µM in assay [15]; more than 100 µM in assay [17]. Besides, the minimum inhibitory concentration (MIC) in assay [2] was 0.39 µM (≈ 0.144 µg/mL); in [3], 0.78 µM (≈ 0.287 µg/mL); in assay [4], more than 50 µM; in [5], more than 50 µM; in assay [6], 4.7 µM (≈ 1.73 µg/mL); in assay [7], 37 µM (≈ 13.6 µg/mL). Besides, the minimum inhibitory concentration (MIC) in assay [8] was more than 50 µM; in assay [9] it was 4.7 µM (≈ 1.73 µg/mL); in assay [10], 19 µM (≈ 7 µg/mL); in [11], 0.78 µM (≈ 0.287 µg/mL); in assay [12], 1.56 µM (≈ 0.575 µg/mL); in assay [16] it was more than 50 µM. Besides, the CC50 with HepG2 was more than 100 µM.
As for `Cc1ccc2[nH]c(C3CCCNC3)c(-c3ccncc3)c2c1` (stereo not given), the MIC90 in [1] stood at 50.5 µM (≈ 14.7 µg/mL); in assay [13], 6.25 µM (≈ 1.82 µg/mL); in assay [14] it was 12.5 µM (≈ 3.64 µg/mL); in assay [15], 25 µM (≈ 7.28 µg/mL); in assay [17], 19.5 µM (≈ 5.68 µg/mL). The MIC is 1.56 µM (≈ 0.455 µg/mL) in assay [2]; 2.3 µM (≈ 0.67 µg/mL) in assay [3]; 37 µM (≈ 10.8 µg/mL) in assay [4]; 50 µM (≈ 14.6 µg/mL) in assay [5]; 12.5 µM (≈ 3.64 µg/mL) in assay [6]; 25 µM (≈ 7.28 µg/mL) in assay [7]. For the same compound, the MIC in assay [8] was 50 µM (≈ 14.6 µg/mL); in assay [9], 9.4 µM (≈ 2.74 µg/mL); in assay [10], 9.4 µM (≈ 2.74 µg/mL); in assay [11] it was 6.25 µM (≈ 1.82 µg/mL); in assay [12] it was 9.4 µM (≈ 2.74 µg/mL); in assay [16] it was 25 µM (≈ 7.28 µg/mL). In the assay with HepG2, this compound yielded a CC50 of 12.7 µM.
With `NC(=O)c1cc(Br)ccc1OCCOc1ccccc1`, the MIC90 in [1] was more than 100 µM; in assay [13], 50 µM (≈ 16.8 µg/mL); in assay [14] it was more than 50 µM; in [15], more than 50 µM; in assay [17], more than 100 µM. The minimum inhibitory concentration (MIC) is 6.25 µM (≈ 2.1 µg/mL) in assay [2]; 37 µM (≈ 12.4 µg/mL) in [3]; more than 50 µM in assay [4]; more than 50 µM in assay [5]; more than 50 µM in assay [6]; more than 50 µM in assay [7]. For the same compound, the MIC is more than 50 µM in assay [8]; more than 50 µM in assay [9]; more than 50 µM in [10]; 50 µM (≈ 16.8 µg/mL) in assay [11]; more than 50 µM in [12]; more than 50 µM in assay [16]. Besides, in the assay with HepG2, the cytotoxic concentration (CC50) is more than 100 µM.
Regarding `O=C(NC1=NCCS1)c1sc2cc(F)ccc2c1Cl`, the MIC90 was 39.3 µM (≈ 12.4 µg/mL) in assay [1]; 3.12 µM (≈ 0.982 µg/mL) in assay [13]; 12.5 µM (≈ 3.93 µg/mL) in assay [14]; 3.12 µM (≈ 0.982 µg/mL) in assay [15]; more than 100 µM in assay [17]. The minimum inhibitory concentration (MIC) was 0.6 µM (≈ 0.189 µg/mL) in assay [2]; 1.2 µM (≈ 0.378 µg/mL) in [3]; more than 50 µM in [4]; more than 50 µM in assay [5]; 9.4 µM (≈ 2.96 µg/mL) in assay [6]; more than 50 µM in assay [7]. The minimum inhibitory concentration (MIC) in [8] was more than 50 µM; in assay [9], 6.25 µM (≈ 1.97 µg/mL); in assay [10], more than 50 µM; in assay [11], 3.13 µM (≈ 0.985 µg/mL); in assay [12], 3.13 µM (≈ 0.985 µg/mL); in assay [16], 12.5 µM (≈ 3.93 µg/mL). Moreover, the half-maximal cytotoxic concentration (CC50) in the assay with HepG2 was more than 100 µM.

The values above are taken from ChEMBL document CHEMBL3832761, “MMV Pathogen Box Bioactivity Data” (2017).
